In patent US20140377219A1, “HIV INHIBITORS” (New york Blood Center, Inc., priority 2011, published 2014):
Counter-ions that a name gives are not always drawn. Like-named read-outs stand apart in the source and are kept apart here.

Experiments:
[1] = system: TZM-bl cells; experiment: Cytotoxicity in TZM-bl cells (XTT); assay type: cell-based; details: for % toxicity at that dose (number in parenthesis), TZM-bl cells: at the dose given as CC50 bound
Protocol: (§1) The cytotoxicity of small molecules in TZM-bl cells was measured by a colorimetric method using XTT (sodium 3′-(1-(phenylamino)-carbonyl)-3,4-tetrazolium-bis(4-methoxy-6-nitro)benzenesulfonic acid hydrate), a light yellowish tetrazolium dye. Briefly, 100 μl of a compound at graded concentrations was added to equal volume of cells (10^5/ml) in wells of 96-well plates followed by incubation at 37° C. for 3 days and addition of XTT (PolySciences, Inc., Warrington, Pa.).

[2] = system: laboratory-adapted HIV-1 IIIB strain; experiment: microbe, parasite or virus in culture; details: Human immunodeficiency virus 1, IIIB, MT2, read-out: MT-2 Cells IC50 (μM ± SD)
Protocol: (§3) In brief, 1×10^4 MT-2 cells were infected with HIV-1 at 100 TCID50 (50% tissue culture infective dose) (0.01MOI) in 200 μl medium in the presence or absence of small molecules at graded concentrations and incubated overnight. The culture supernatants were then removed and replaced with fresh media. On the fourth day post-infection, 100 μl of culture supernatants were collected from each well, mixed with equal volume of 5% Triton X-100 and tested for p24 antigen by sandwich-ELISA. The percent inhibition of p24 production and IC50 values were calculated by the GraphPad Prism software (GraphPad Software Inc.).

[3] = system: MT-2 cells; experiment: Cytotoxicity in MT-2 cells (XTT); assay type: cell-based
Protocol: (§2) Cytotoxicity of small molecules in MT-2 cells and PBMC was measured by the XTT ((sodium 3′-(1-(phenylamino)-carbonyl)-3,4-tetrazolium-bis(4-methoxy-6-nitro)benzene-sulfonic acid hydrate)) method. Briefly, for MT-2 cells, 100 μl of a small molecule at graded concentrations was added to an equal volume of cells (10^5 cells/ml) in 96-well plates followed by incubation at 37° C. for four days, which ran parallel with the neutralization assay in MT-2 (except medium was added instead of virus). In the case of PBMC, 5×10^5 cells/ml was used and the cytotoxicity was measured after seven days. […] The percentage cytotoxicity and the CC50 values were calculated as described above.

[4] = system: laboratory-adapted HIV-1 IIIB strain; details: read-out: MT-2 Cells IC50 (μM ± SD); multi-cycle assay, MT-2 cells, HIV-1 IIIB
Protocol: as §3

[5] = Cytotoxicity in TZM-bl cells (XTT); assay type: cell-based; details: human; TZM-bl cells, XTT, 3 days; read-out: TZM-bl cells CC50 (μM ± SD)
Protocol: as §1

[6] = Cytotoxicity in MT-2 cells (XTT); assay type: cell-based; details: human; MT-2 cells, XTT, four days
Protocol: as §2

[7] = MT-2 cells, XTT, four days, read-out: MT-2 Cells CC50
[8] = TZM-bl cells, XTT, 3 days, read-out: TZM-bl cells CC50 (μM ± SD)

Row | SMILES | IC50 [2] [µM] | IC50 [4] [µM] | CC50 [1] [µM] | CC50 [3] [µM] | CC50 at 3 days [5] [µM] | CC50 at 4 days [6] [µM] | further results
1 | CC(=O)N1CCCCC1C(NC(=O)C(=O)Nc1ccc(Cl)cc1)c1nc(C)c(CCO)s1 (stereo not drawn) [Compound 13, N^1-((1-acetylpiperidin-2-yl)(5-(2-hydroxyethyl)-4-methylthiazol-2-yl)methyl)-N^2-(4-chlorophenyl)oxalamide] | > 52 | – | – | – | – | – | % toxicity at that dose (number in parenthesis), TZM-bl cells [1]: 20%
2 | CCn1cc(NC(=O)C(=O)Nc2ccc(Cl)cc2)cn1 [Compound 17, N^1-(4-chlorophenyl)-N^2-(1-ethyl-1H-pyrazol-4-yl)oxalamide] | – | – | – | – | – | – | CC50 [3, 7]: 10.7 ± 1.6 µM; melting point: 232 to 233 °C
3 | C[C@@H](NC(=O)C(=O)Nc1ccc(Cl)cc1)[C@H](c1ccccc1)N1CCOCC1 [Compound 19, N^1-(4-chlorophenyl)-N^2-((1S,2R)-1-morpholino-1-phenylpropan-2-yl)oxalamide] | > 24.9 | – | – | – | – | – | –
4 | Cc1nc(C(NC(=O)C(=O)NC2CCCCCC2)C2CCCCN2)sc1CCO (stereo not drawn) [Compound 40, N^1-cycloheptyl-N^2-((5-(2-hydroxyethyl)-4-methylthiazol-2-yl)(piperidin-2-yl)methyl)oxalamide.HCl] | – | 19.6 ± 4 | – | – | – | – | CC50 [1, 8]: > 88 µM; CC50 [3, 7]: ~60 µM
5 | Cc1nc(C(NC(=O)CCC(=O)Nc2ccc(Cl)cc2)C2CCCN2)sc1CO (stereo not drawn) [Compound 41, N^1-(4-chlorophenyl)-N^4-((5-(hydroxymethyl)-4-methylthiazol-2-yl)(pyrrolidin-2-yl)methyl)succinamide.HCl] | – | > 42 | > 85 | > 85 | – | – | –
6 | O=C(CCC(=O)Nc1ccc(Cl)cc1)NCc1ccc(S(=O)(=O)N2CCOCC2)cc1 [Compound 42, N^1-(4-chlorophenyl)-N^4-(4-(morpholinosulfonyl)benzyl)succinamide] | 23.9 ± 1.8 | – | – | – | ~30 | 21.2 ± 1.5 | melting point: 208 to 209 °C (dec.)
7 | O=C(CCC(=O)Nc1ccc(Cl)cc1)NCCCN1CCCC(O)C1 (stereo not drawn) [Compound 43, N^1-(4-chlorophenyl)-N^4-(3-(3-hydroxypiperidin-1-yl)propyl)succinamide] | ~109 | – | – | – | ~82 | ~109 | melting point: 122 to 123 °C
8 | CCC(CN1CCOCC1)NC(=O)CCC(=O)Nc1ccc(Cl)cc1 (stereo not drawn) [Compound 46, N^1-(4-chlorophenyl)-N^4-(1-morpholinobutan-2-yl)succinamide] | 33.2 ± 2.2 | – | – | – | > 109 | 41.9 ± 1.6 | –
9 | CN1CCN(C(=O)CNC(=O)CCC(=O)Nc2ccc(Cl)cc2)CC1 [Compound 47, N^1-(4-chlorophenyl)-N^4-(2-(4-methylpiperazin-1-yl)-2-oxoethyl)succinamide .HCOOH] | – | ~48 | ~36 | ~97 | – | – | –
10 | CC(C)c1nccn1CCCNC(=O)CCC(=O)Nc1ccc(Cl)cc1 [Compound 48, N^1-(4-chlorophenyl)-N^4-(3-(2-isopropyl-1H-imidazol-1-yl)propyl)succinamide. HCOOH] | – | > 36 | > 95 | > 95 | – | – | –
11 | Cc1nccn1CCCNC(=O)CCC(=O)Nc1ccc(Cl)cc1 [Compound 49, N^1-(4-chlorophenyl)-N^4-(3-(2-methyl-1H-imidazol-1-yl)propyl)succinamide. HCOOH] | – | > 38 | 102 | > 102 | – | – | –
12 | Cc1nc2ncccn2c1CN1CCC(NC(=O)CCC(=O)Nc2ccc(Cl)cc2)CC1 [Compound 50, N^1-(4-chlorophenyl)-N^4-(1-((2-methylimidazo[1,2-a]pyrimidin-3-yl)methyl)piperidin-4-yl)succinamide] | > 33 | – | – | – | > 88 | > 88 | –
13 | Cc1nc(C(NC(=O)CCC(=O)Nc2ccc(Cl)cc2)C2CCCCN2)sc1CO.Cl (stereo not drawn) [Compound 51, N^1-(4-chlorophenyl)-N^4-((5-(hydroxymethyl)-4-methylthiazol-2-yl)(piperidin-2-yl)methyl)succinamide.HCl] | – | ~40 | – | – | – | – | CC50 [1, 8]: > 82 µM; % toxicity at that dose (number in parenthesis), TZM-bl cells [1]: 0%; CC50 [3, 7]: > 82 µM; % toxicity at that dose (number in parenthesis), MT-2 cells ([3]; at the dose given as CC50 bound): 20%
